Results on five compounds are retold here after patent US11414418B2, “Compounds useful as immunomodulators” (Bristol-Myers Squibb Company, priority 2018, dated 2022).

For the assay, the target named is PD-1/PD-L1 interaction (PD-1-Ig / PD-L1-His) (Homo sapiens (Human), UniProt Q9NZQ7). The assay is described as follows: PD-1/PD-L1 Homogenous Time-Resolved Fluorescence (HTRF) binding assay. Particulars: PD-L1-His 10 nM final, PD-1-Ig 20 nM final. An excerpt: The ability of the compounds of formula (I) to bind to PD-L1 was investigated using a PD-1/PD-L1 Homogenous Time-Resolved Fluorescence (HTRF) binding assay.
Chain of PD-1/PD-L1 interaction (PD-1-Ig / PD-L1-His) (Q9NZQ7 other isoform, or with tags, fused parts or gaps): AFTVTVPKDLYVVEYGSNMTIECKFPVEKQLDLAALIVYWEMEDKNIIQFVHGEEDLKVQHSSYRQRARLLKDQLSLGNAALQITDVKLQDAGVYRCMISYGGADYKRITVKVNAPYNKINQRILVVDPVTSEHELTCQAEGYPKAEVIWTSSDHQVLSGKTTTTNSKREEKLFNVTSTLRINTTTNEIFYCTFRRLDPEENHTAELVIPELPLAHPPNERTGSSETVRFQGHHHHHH
1. Homogenous Time-Resolved Fluorescence (HTRF) Binding Assay.
The interaction of PD-1 and PD-L1 can be assessed using soluble, purified preparations of the extracellular domains of the two proteins. The PD-1 and PD-L1 protein extracellular domains were expressed as fusion proteins with detection tags, for PD-1, the tag was the Fc portion of Immunoglobulin (PD-1-Ig) and for PD-L1 it was the 6 histidine motif (PD-L1-His). All binding studies were performed in an HTRF assay buffer consisting of dPBS supplemented with 0.1% […] bovine serum albumin and 0.05% (v/v) Tween-20. For the h/PD-L1-His binding assay, inhibitors were pre-incubated with PD-L1-His (10 nM final) for 15 m in 4 μl of assay buffer, followed by addition of PD-1-Ig (20 nM final) in 1 μl of assay buffer and further incubation for 15 m. HTRF detection was achieved using europium crypate-labeled anti-Ig (1 nM final) and allophycocyanin (APC) labeled anti-His (20 nM final). Antibodies were diluted in HTRF detection buffer and 5 μl was dispensed on top of the binding reaction. The reaction mixture was allowed to equilibrate for 30 minutes and the resulting signal (665 nm/620 nm ratio) was obtained using an EnVision fluorometer. Additional binding assays were established between the human proteins PD-1-Ig/PD-L2-His (20 & 5 nM, respectively) and CD80-His/PD-L1-Ig (100 & 10 nM, respectively).
Recombinant Proteins: Human PD-1 (25-167) with a C-terminal human Fc domain of immunoglobulin G (Ig) epitope tag [hPD-1 (25-167)-3S-IG] and human PD-L1 (18-239) with a C-terminal His epitope tag [hPD-L1 (18-239)-TVMV-His] were expressed in HEK293T cells and purified sequentially by ProteinA affinity chromatography and size exclusion chromatography. Human PD-L2-His and CD80-His was obtained through commercial sources.
A general note: In TR-FRET formats the signal depends on donor and acceptor labels being close together.
`O=C(CCCN1CC[C@@H](OCc2ccccc2)C1)N1CCCC2(CCCN(C(=O)CCCN3CC[C@@H](OCc4ccccc4)C3)C2)C1` [Example 1001, 1,1′-(2,8-diazaspiro[5.5]undecane-2,8-diyl)bis(4-((R)-3-(benzyloxy)pyrrolidin-1-yl)butan-1-one)]: the half-inhibitory concentration (IC50) (as a rule, the concentration that gives 50% inhibition) was above 2.5 µM.
In turn, `O=C(CCCN1CC[C@@H](O)C1)N1CCCC2(CCCN(C(=O)CCCN3CC[C@@H](O)C3)C2)C1` [Example 1002, 1,1′-(2,8-diazaspiro[5.5]undecane-2,8-diyl)bis(4-((R)-3-hydroxypyrrolidin-1-yl)butan-1-one)] had an IC50 of 0.84 µM. This counts as sub-micromolar.
The figure for `C[C@@](CO)(NCc1cc(Cl)c(CCC(=O)N2CCCC3(CCCN(C(=O)CCCN4CC[C@@H](OCc5ccccc5)C4)C3)C2)cc1OCc1cncc(C(N)=O)c1)C(=O)O` (stereo partly drawn) [Example 1003, (2S)-2-((4-(3-(8-(4-((R)-3-(benzyloxy)pyrrolidin-1-yl)butanoyl)-2,8-diazaspiro[5.5]undecan-2-yl)-3-oxopropyl)-2-((5-carbamoylpyridin-3-yl)methoxy)-5-chlorobenzyl)amino)-3-hydroxy-2-methylpropanoic acid] is above 10 µM; for `C[C@@](CO)(NCc1cc(Cl)c(CCC(=O)N2CCCC3(CCCN(C(=O)CCCN4CC[C@@H](OCc5ccccc5)C4)C3)C2)cc1OCc1cncc(C#N)c1)C(=O)O` (stereo partly drawn) [Example 1004, (2S)-2-((4-(3-(8-(4-((R)-3-(benzyloxy)pyrrolidin-1-yl)butanoyl)-2,8-diazaspiro[5.5]undecan-2-yl)-3-oxopropyl)-5-chloro-2-((5-cyanopyridin-3-yl)methoxy)benzyl)amino)-3-hydroxy-2-methylpropanoic acid] it is above 10 µM; for `COC(=O)c1cncc(COc2cc(CCC(=O)N3CCCC4(CCCN(C(=O)CCCN5CC[C@@H](OCc6ccccc6)C5)C4)C3)c(Cl)cc2CN[C@@](C)(CO)C(=O)O)c1` (stereo partly drawn) [Example 1005, (2S)-2-((4-(3-(8-(4-((R)-3-(benzyloxy)pyrrolidin-1-yl)butanoyl)-2,8-diazaspiro[5.5]undecan-2-yl)-3-oxopropyl)-5-chloro-2-((5-(methoxycarbonyl)pyridin-3-yl)methoxy)benzyl)amino)-3-hydroxy-2-methylpropanoic acid] it is above 10 µM.
